Measurements reported in patent publication US7294639B2, “Biaromatic ligand activators of PPARγ receptors” (Galderma Research & Development, priority 2001, dated 2007).

Assays:
[1] = target: T1, chimeric Gal-PPARγ receptor (LBD) (Homo sapiens, UniProt P37231); test: Transactivation test, PPARγ agonist activity (luciferase); format: cell-based; details: concentration giving 50% activation relative to the reference agonist
T1 construct: chimeric Gal-PPARγ receptor (LBD); expressed in transfected cells; host or cells: HeLa cells, stably transfected
T1 sequence (P37231 238-503 limits assumed): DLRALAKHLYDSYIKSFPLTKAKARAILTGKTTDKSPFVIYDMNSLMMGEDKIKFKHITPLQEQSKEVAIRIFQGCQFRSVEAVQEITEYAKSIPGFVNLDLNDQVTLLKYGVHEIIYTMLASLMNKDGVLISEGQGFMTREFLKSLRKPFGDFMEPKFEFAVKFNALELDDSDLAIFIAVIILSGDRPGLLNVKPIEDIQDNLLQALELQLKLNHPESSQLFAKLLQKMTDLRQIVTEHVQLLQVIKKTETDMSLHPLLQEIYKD
Protocol: The agonist activity towards the PPARγ receptors of the compounds according to the invention may be evaluated by transactivation tests.
The capacity of the molecules to activate and/or inhibit the PPARγ receptors is evaluated from Hela cells stably transfected with the chimeric Gal-PPARγ receptor (LBD).
96-well plates are inoculated at the rate of 10000 cells/100 μl/well in DMEM 10% SDL medium and then placed for 24 hours at 37° C., 7% CO2.
To determine the PPARγ agonist activity, the cells are then treated by addition of 5 μl/well of the molecules to be tested at the final concentration of 1 μM. Cells are also treated in parallel with a reference agonist, (−)-3-{4-[2-(benzooxazol-2-ylmethylamino)ethoxy]phenyl}-2-ethoxypropionic acid, 1 μM.
After another incubation of 24 hours at 37° C., 7% CO2, a luciferase assay is carried out with the aid of the “Steady-Glo Luciferase Assay System” kit from Promega. The luminescence is counted on a Microbeta Trilux microplate reader (Wallac).
The agonist activity of the test product will be expressed as a percentage activation relative to the control agonist, the reference agonist at 1 μM.
The AC50, expressed in nM, is determined as the concentration which makes it possible to obtain 50% activation of the basal signal relative to the reference agonist.

human PPARγ receptor = target: T2, human PPARγ receptor (Homo sapiens, UniProt P37231); test: Binding test by competition with tritiated reference agonist (hydroxyapatite gel); details: hPPARγ/RXRα heterodimers from SF9 insect cells
T2 construct: made in house; host or cells: SF9 insect cells, recombinant baculovirus
Protocol: The affinity of the compounds of the invention for the human PPARγ receptor was determined in a test of binding, by competition for the attachment of a reference agonist, the following tritiated compound 5-{4-[2-(methylpyridin-2-ylamino)ethoxy]benzyl}thiazolidine-2,4-dione.
The receptors are obtained by infecting SF9 insect cells with a recombinant bacculovirus. They exist in the form of hPPARγ/RXRα heterodimers. The presence of RXRα increases the solubility and the stability of the hPPARγ receptor and, consequently, its biological activity, without as a result interfering in the determination of the binding constants.
The technique of adsorption on hydroxyapatite gel was used to separate the ligand bound to the receptor from the free ligand. The results are expressed as Kd value (nM) which represents the dissociation constant at equilibrium obtained for each compound.

T2 sequence (P19793 whole entry): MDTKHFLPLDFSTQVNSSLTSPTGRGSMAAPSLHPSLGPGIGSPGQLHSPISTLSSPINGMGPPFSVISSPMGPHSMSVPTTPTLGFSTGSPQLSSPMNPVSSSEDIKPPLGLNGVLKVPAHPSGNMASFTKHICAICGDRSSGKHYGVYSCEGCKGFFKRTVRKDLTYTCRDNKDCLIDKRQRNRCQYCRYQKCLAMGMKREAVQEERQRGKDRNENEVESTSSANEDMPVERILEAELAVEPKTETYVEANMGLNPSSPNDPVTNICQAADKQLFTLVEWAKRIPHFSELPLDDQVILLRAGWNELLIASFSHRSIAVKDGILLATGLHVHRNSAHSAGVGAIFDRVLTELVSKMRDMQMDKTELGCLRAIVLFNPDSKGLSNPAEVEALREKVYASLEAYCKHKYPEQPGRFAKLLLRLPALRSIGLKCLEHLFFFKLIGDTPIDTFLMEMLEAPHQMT
T2 sequence (P37231 whole entry): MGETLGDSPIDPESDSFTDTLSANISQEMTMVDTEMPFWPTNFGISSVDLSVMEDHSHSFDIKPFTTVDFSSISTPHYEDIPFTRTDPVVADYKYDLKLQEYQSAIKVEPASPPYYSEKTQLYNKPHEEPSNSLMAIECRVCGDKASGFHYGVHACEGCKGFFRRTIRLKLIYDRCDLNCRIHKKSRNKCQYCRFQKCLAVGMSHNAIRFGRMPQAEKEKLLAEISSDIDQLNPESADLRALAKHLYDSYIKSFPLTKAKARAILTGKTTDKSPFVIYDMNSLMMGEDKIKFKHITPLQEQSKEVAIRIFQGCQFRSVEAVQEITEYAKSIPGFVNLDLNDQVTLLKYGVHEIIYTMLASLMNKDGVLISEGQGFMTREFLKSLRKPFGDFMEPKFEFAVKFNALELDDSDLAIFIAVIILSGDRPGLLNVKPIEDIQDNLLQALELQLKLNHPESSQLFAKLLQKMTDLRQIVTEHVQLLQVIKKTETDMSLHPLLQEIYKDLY

AC50 [1]	Kd (human PPARγ receptor)	Compound
55.5 nM		COC(=O)CCCCCCCCC(=O)N(C)Cc1cccc(-c2ccc(CC3SC(=O)NC3=O)cc2)c1 (centres unmarked) [Example 2, methyl 9-{[4′-(2,4-dioxothiazolidin-5-ylmethyl)biphenyl-3-ylmethyl]methylcarbamoyl}nonanoate]
13.1 nM	375 nM	COC(=O)c1ccc(C(=O)N(C)Cc2cccc(-c3ccc(CC4SC(=O)NC4=O)cc3)c2)cc1 (centres unmarked) [Example 3, methyl N-[4′-(2,4-dioxothiazolidin-5-ylmethyl)biphenyl-3-ylmethyl]-N-methylterephthalamate]
24.2 nM	250 nM	CN(Cc1cccc(-c2ccc(CC3SC(=O)NC3=O)cc2)c1)C(=O)CCC1CCCC1 (centres unmarked) [Example 4, 3-cyclopentyl-N-[4′-(2,4-dioxothiazolidin-5-ylmethyl)biphenyl-3-ylmethyl]-N-methylpropionamide]
23.3 nM	500 nM	CN(Cc1cccc(-c2ccc(CC3SC(=O)NC3=O)cc2)c1)C(=O)c1cccc2ccccc12 (centres unmarked) [Example 5, N-[4′-(2,4-dioxothiazolidin-5-ylmethyl)biphenyl-3-ylmethyl]-N-methylnaphthalene-1-carboxamide]
4 nM	60 nM	CN(Cc1cccc(-c2ccc(CC3SC(=O)NC3=O)cc2)c1)C(=O)c1ccc2ccccc2c1 (centres unmarked) [Example 6, N-[4′-(2,4-dioxothiazolidin-5-ylmethyl)biphenyl-3-ylmethyl]-N-methylnaphthalene-2-carboxamide]
63.8 nM		CN(Cc1cccc(-c2ccc(CC3SC(=O)NC3=O)cc2)c1)C(=O)COc1ccccc1 (centres unmarked) [Example 7, N-[4′-(2,4-dioxothiazolidin-5-ylmethyl)biphenyl-3-ylmethyl]-N-methyl-2-phenoxyacetamide]
307 nM		CN(Cc1cccc(-c2ccc(CC3SC(=O)NC3=O)cc2)c1)C(=O)c1cccn1C (centres unmarked) [Example 8, N-[4′-(2,4-dioxothiazolidin-5-ylmethyl)biphenyl-3-ylmethyl]-N-methyl-1-methyl-1H-pyrrole-2-carboxamide]
182 nM		CN(Cc1cccc(-c2ccc(CC3SC(=O)NC3=O)cc2)c1)C(=O)C12CC3CC(CC(C3)C1)C2 (centres unmarked) [Example 9, N-[4′-(2,4dioxothiazolidin-5-ylmethyl)biphenyl-3-ylmethyl]-N-methyladamantane-1-carboxamide]
3.3 nM	60 nM	CN(Cc1cccc(-c2ccc(CC3SC(=O)NC3=O)cc2)c1)C(=O)c1ccc(-c2ccccc2)cc1 (centres unmarked) [Example 10, N-[4′-(2,4-dioxothiazolidin-5-ylmethyl)biphenyl-3-ylmethyl]-N-methylbiphenyl-4-carboxamide]
15.1 nM	375 nM	CN(Cc1cccc(-c2ccc(CC3SC(=O)NC3=O)cc2)c1)C(=O)c1cc2ccccc2s1 (centres unmarked) [Example 11, N-[4′-(2,4-dioxothiazolidin-5-ylmethyl)biphenyl-3-ylmethyl]-N-methylbenzo[b]thio-phene-2-carboxamide]
3.2 nM	60 nM	CN(Cc1cccc(-c2ccc(CC3SC(=O)NC3=O)cc2)c1)C(=O)CCCCC(=O)c1ccccc1 (centres unmarked) [Example 12, N-[4′-(2,4-dioxothiazolidin-5-ylmethyl)biphenyl-3-ylmethyl]-N-methyl-6-oxo-6-phenylhexanamide]
36.7 nM	500 nM	CN(Cc1cccc(-c2ccc(CC3SC(=O)NC3=O)cc2)c1)C(=O)c1ccc(N(C)C)c2ccccc12 (centres unmarked) [Example 13, 4dimethylamino-N-[4′-(2,4-dioxothiazolidin-5-ylmethyl)biphenyl-3-ylmethyl]-N-methylnaphthalene-1-carboxamide]
143 nM		CN(Cc1cccc(-c2ccc(CC3SC(=O)NC3=O)cc2)c1)C(=O)c1ccc(S(C)(=O)=O)cc1 (centres unmarked) [Example 14, N-[4′-(2,4-dioxothiazolidin-5-ylmethyl)biphenyl-3-ylmethyl]-4-methanesulphonyl-N-methylbenzamide]
5 nM	60 nM	CN(Cc1cccc(-c2ccc(CC3SC(=O)NC3=O)cc2)c1)C(=O)c1ccc(C(=O)c2ccccc2)cc1 (centres unmarked) [Example 15, N-[4′-(2,4-dioxothiazolidin-5-ylmethyl)biphenyl-3-ylmethyl]-N-methyl-4-(1-phenylmethanoyl)benzamide]
0.55 nM	4 nM	COCCOCOc1ccc2cc(C(=O)N(C)Cc3cccc(-c4ccc(CC5SC(=O)NC5=O)cc4)c3)ccc2c1 (centres unmarked) [Example 16, 6-(2-methoxyethoxymethoxy)-N-[4′-(2,4-dioxothiazolidin-5-ylmethyl)biphenyl-3-ylmethyl]-N-methylnapthalene-2-carboxamide]
3.8 nM	15 nM	CN(Cc1cccc(-c2ccc(CC3SC(=O)NC3=O)cc2)c1)C(=O)c1ccc2cc(O)ccc2c1 (centres unmarked) [Example 17, 6-hydroxy-N-[4′-(2,4-dioxothiazolidin-5-ylmethyl)biphenyl-3-ylmethyl]-N-methylnaphthalene-2-carboxamide]
42.5 nM		CSc1ccc(C(=O)N(C)Cc2cccc(-c3ccc(CC4SC(=O)NC4=O)cc3)c2)cc1 (centres unmarked) [Example 18, N-[4′-(2,4-dioxothiazolidine-5-ylmethyl)biphenyl-3-ylmethyl]-N-methyl-4-methylsulphanylbenzamide]
2.9 nM	8 nM	CCO[C@@H](Cc1ccc(-c2cccc(CN(C)C(=O)c3ccc(-c4ccccc4)cc3)c2)cc1)C(=O)O [Example 19, (S)-3-(3′-{[(1-biphenyl-4-ylmethanoyl)methylamino]methyl}biphenyl-4-yl)-2-ethoxypropionic acid]
7.7 nM	9.5 nM	CCO[C@@H](Cc1ccc(-c2cccc(CN(C)C(=O)CCCCC(=O)c3ccccc3)c2)cc1)C(=O)O [Example 20, (S)-2-ethoxy-3-(3′-{[methyl(6-oxo-6-phenylhexanoyl)amino]methyl}biphenyl-4-yl)propionic acid]
22 nM		CN(C(=O)Nc1ccc2ccccc2c1)c1cccc(-c2ccc(CC3SC(=O)NC3=O)cc2)c1 (centres unmarked) [Example 21, 1-[4′-(2,4-dioxothiazolidin-5-ylmethyl)biphenyl-3-yl]-1-methyl-3-naphthalen-2-ylurea]
4.2 nM		CN(C)c1ccc(NC(=O)N(C)c2cccc(-c3ccc(CC4SC(=O)NC4=O)cc3)c2)cc1 (centres unmarked) [Example 22, 3-(4-dimethylaminophenyl)-1-[4′-(2,4-dioxothiazolidin-5-ylmethyl)biphenyl-3-yl]-1-methylurea]
1 nM		CCO[C@@H](Cc1ccc(-c2cccc(CN(C)C(=O)c3ccc4cc(OCOCCOC)ccc4c3)c2)cc1)C(=O)O [Example 23, (S)-2-ethoxy-3-{3′-[({1-[6-(2-methoxyethoxymethoxy)naphthalen-2-yl]methanoyl}methylamino)methyl]biphenyl-4-yl}propionic acid]
